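Results reflect a 48-hour exposure of cells in 96-well plates to compound at five concentrations. Definition used: TGI = concentration required for complete inhibition of growth.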
Tests used:
Test in all cases: NCI tumour cell line growth inhibition, 48 h
SF-539 CNS = tested on: SF-539 CNS
M14 melanoma = tested on: M14 melanoma
A549 NSCLC = tested on: A549 NSCLC
HOP-62 NSCLC = tested on: HOP-62 NSCLC
SNB-19 CNS = tested on: SNB-19 CNS
SK-MEL-5 melanoma = tested on: SK-MEL-5 melanoma
UACC-62 melanoma = tested on: UACC-62 melanoma
ACHN renal = tested on: ACHN renal
CCRF-CEM leukemia = tested on: CCRF-CEM leukemia
OVCAR-4 ovarian = tested on: OVCAR-4 ovarian
MDA-MB-435 = tested on: MDA-MB-435
MDA-MB-231 breast = tested on: MDA-MB-231 breast
KM12 colon = tested on: KM12 colon
CAKI-1 renal = tested on: CAKI-1 renal
K-562 leukemia = tested on: K-562 leukemia
U251 CNS = tested on: U251 CNS
SN12C renal = tested on: SN12C renal
UACC-257 melanoma = tested on: UACC-257 melanoma
NCI-H23 lung = tested on: NCI-H23 lung
SF-268 CNS = tested on: SF-268 CNS
NCI-H460 lung = tested on: NCI-H460 lung
HT29 colon = tested on: HT29 colon
DU-145 prostate = tested on: DU-145 prostate
HCT-116 colon = tested on: HCT-116 colon
HL-60(TB) leukemia = tested on: HL-60(TB) leukemia
SK-MEL-2 melanoma = tested on: SK-MEL-2 melanoma
MOLT-4 leukemia = tested on: MOLT-4 leukemia
HCT-15 colon = tested on: HCT-15 colon
UO-31 renal = tested on: UO-31 renal
T-47D breast = tested on: T-47D breast
SK-OV-3 ovarian = tested on: SK-OV-3 ovarian
LOX IMVI melanoma = tested on: LOX IMVI melanoma
BT-549 breast = tested on: BT-549 breast
TK-10 renal = tested on: TK-10 renal
A498 renal = tested on: A498 renal
SR leukemia = tested on: SR leukemia
MCF7 breast = tested on: MCF7 breast
HCC-2998 colon = tested on: HCC-2998 colon
NCI-H226 lung = tested on: NCI-H226 lung
MALME-3M melanoma = tested on: MALME-3M melanoma
EKVX NSCLC = tested on: EKVX NSCLC
SK-MEL-28 melanoma = tested on: SK-MEL-28 melanoma
RXF 393 renal = tested on: RXF 393 renal
MDA-N = tested on: MDA-N
OVCAR-3 ovarian = tested on: OVCAR-3 ovarian
OVCAR-5 ovarian = tested on: OVCAR-5 ovarian
RPMI-8226 leukemia = tested on: RPMI-8226 leukemia
HOP-92 NSCLC = tested on: HOP-92 NSCLC
SF-295 CNS = tested on: SF-295 CNS
COLO 205 colon = tested on: COLO 205 colon
SW-620 colon = tested on: SW-620 colon
NCI-H522 lung = tested on: NCI-H522 lung
PC-3 prostate = tested on: PC-3 prostate
OVCAR-8 ovarian = tested on: OVCAR-8 ovarian
786-0 renal = tested on: 786-0 renal
SNB-75 CNS = tested on: SNB-75 CNS
IGROV1 ovarian = tested on: IGROV1 ovarian

Measured: TGI

CCc1c(-c2ccccc2)[nH]c2ccccc2c1=O
0.266 µM: UO-31 renal
84 µM: NCI-H226 lung
not listed: HOP-92 NSCLC | SF-295 CNS | COLO 205 colon | SW-620 colon | NCI-H522 lung | PC-3 prostate | OVCAR-8 ovarian | 786-0 renal | SNB-75 CNS | IGROV1 ovarian
> 100 µM: all other assays above

Cc1nc2ccccc2c(=O)n1NC(=O)c1ccc(N)cc1
not listed: CAKI-1 renal | SK-MEL-2 melanoma | HCT-15 colon
> 100 µM: all other assays above

Source: PubChem BioAssay (NCI)
